Converted amounts (≈) assume the structure as drawn. Read-outs that look alike come from different tables or passages of the source.
Columns and labels:
murine L1210 leukemia = experiment: In vivo antitumor activity against murine L1210 leukemia in CDF1 mice
Procedure: The therapeutic effect of obelmycins were studied on CDF1 mice bearing L1210 leukemia, From 24 hours after 1×10^5 L1210 cells/animal were intraperitoneally transplanted to CDF1 mice, Obelmycins were intraperitoneally given everyday for 10 days. The prolongation of the survival time was calculated relative to control animals receiving physiological saline as 100.
Inoculation: 1×10^5 cells/mouse (ip)
Treatment: day 1 to 10, daily (ip)

[1] = system: RNA synthesis in mouse leukemia L1210 culture cell; experiment: Nucleic acid synthesis inhibiting action: RNA synthesis (14C-uridine intake) in L1210 culture cells; format: cell-based; settings: 1 h, 60 minutes, 10% bovine serum, 37° C., read-out: 50% Inhibiting Concentration (IC50), Inhibition of RNA Synthesis
Procedure: (§1) For example, […] of L1210 cells were inoculated, on RPM 11640 medium (Rosewellberg Research Institute) containing 20% bovine serum and the compound of the present invention was supplemented in a concentration of 0.0005 to 0.25 μg/ml followed by culturing at 37° C. in a carbon dioxide gas incubator. A 50% proliferation inhibiting concentration was determined as compared to control. Further the aforesaid L1210 culture cells were suspended in 8×10^5 cells/ml in RPM 11640 medium containing 10% bovine serum. After culturing at 37° C. for 1 to 2 hours in a carbon dioxide gas incubator, the compound of the present invention was supplemented in various concentrations. Fifteen minutes after, ^14 C-uridine (0.05 μCi/ml) or ^14 C-thymidine (0.05 μCi/ml) was added to the system followed by culturing at 37° C. for 60 minutes. To the reaction mixture was added chilled 10% trichloroacetic acid to discontinue the reaction. At the same time, insoluble matters were precipitated, further washed twice with chilled 5% trichloroacetic acid and then dissolved in formic acid to provide for measurement of the radioactivity. A 50% intake inhibiting concentration was determined from a rate of intake of the radioactivity in the control group added with no compound.

[2] = system: DNA synthesis in mouse leukemia L1210 culture cell; experiment: Nucleic acid synthesis inhibiting action: DNA synthesis (14C-thymidine intake) in L1210 culture cells; format: cell-based; settings: 1 h, 60 minutes, 10% bovine serum, 37° C., read-out: 50% Inhibiting Concentration (IC50), Inhibition of DNA Synthesis
Procedure: as §1

[3] = system: mouse leukemia L1210 culture cell; experiment: Proliferation inhibiting action against mouse leukemia L1210 culture cells; format: cell-based
Procedure: as §1

[4] = L1210, read-out: 50% Inhibiting Concentration (IC50), Inhibition of Cell Proliferation
[5] = dose 3.1 μg/kg/day ip, daily day 1 to 10, CDF1 mice n=6, survival time relative to saline control as 100
[6] = L1210 cells, RPM 11640 medium with 20% bovine serum, 37° C., read-out: 50% Inhibiting Concentration (IC50), Inhibition of Cell Proliferation

| SMILES | Antitumor effect T C (%) (murine L1210 leukemia; dose 12.5 μg/kg/day ip, daily day 1 to 10, CDF1 mice n=6, survival time relative to saline control as 100) | IC50 [1] [µg/mL] | IC50 [2] [µg/mL] | IC50 [3, 4] [µg/mL] | Antitumor effect T C (%) (murine L1210 leukemia; [5]) | Antitumor effect T C (%) (murine L1210 leukemia; dose 200 μg/kg/day ip, daily day 1 to 10, CDF1 mice n=6, survival time relative to saline control as 100) | IC50 [3, 6] [µg/mL] | Antitumor effect T C (%) (murine L1210 leukemia; ip, 0.1 mg/kg, 24 h) | Antitumor effect T C (%) (murine L1210 leukemia; ip, 0.025 mg/kg, 24 h) |
| --- | --- | --- | --- | --- | --- | --- | --- | --- | --- |
| CCC1(O)CCc2c(O)c3c(c(O)c2C1OC1CC(N(C)C)C(OC2CCC(OC4CCC(O)C(C)O4)C(C)O2)C(C)O1)C(=O)c1c(O)ccc(O)c1C3=O (stereo not shown) [Obelmycin E] | 135 | 0.78 (≈ 1.01 µM) | 1.3 (≈ 1.68 µM) | 0.062 (≈ 0.0803 µM) |  |  |  |  |  |
| CCC1(O)CC(OC2CC(N(C)C)C(OC3CCC(OC4CCC(O)C(C)O4)C(C)O3)C(C)O2)c2c(O)c3c(c(O)c2C1OC1CC(N(C)C)C(OC2CCC(OC4CCC(O)C(C)O4)C(C)O2)C(C)O1)C(=O)c1c(O)ccc(O)c1C3=O (stereo not shown) [Obelmycin B] |  | 0.025 (≈ 0.0213 µM) | 0.26 (≈ 0.222 µM) | 0.0009 (≈ 0.000767 µM) | 150 |  |  |  |  |
| CCC1(O)CCc2c(O)c3c(c(O)c2C1OC1CC(N(C)C)C(O)C(C)O1)C(=O)c1c(O)ccc(O)c1C3=O (stereo not shown) [Obelmycin G] |  | 1.1 (≈ 2.02 µM) | 1.5 (≈ 2.76 µM) |  |  | 145 | 0.2 (≈ 0.368 µM) |  |  |
| CCC1(O)CC(OC2CC(N(C)C)C(OC3CC(O)C(OC4CCC(O)C(C)O4)C(C)O3)C(C)O2)c2c(O)c3c(c(O)c2C1OC1CC(N(C)C)C(OC2CCC(OC4CCC(O)C(C)O4)C(C)O2)C(C)O1)C(=O)c1c(O)ccc(O)c1C3=O (stereo not shown) [Obelmycin C] |  | 0.043 (≈ 0.0362 µM) | 0.38 (≈ 0.32 µM) | 0.001 (≈ 0.000841 µM) | 145 |  |  |  |  |
| CCC1(O)CC(OC2CC(N(C)C)C(O)C(C)O2)c2c(O)c3c(c(O)c2C1O)C(=O)c1c(O)ccc(O)c1C3=O (stereo not shown) [Obelmycin A] |  | 0.14 (≈ 0.25 µM) | 0.58 (≈ 1.04 µM) |  |  |  | 0.001 (≈ 0.00179 µM) | 185 |  |
| CCC1(O)CC(OC2CC(N(C)C)C(OC3CC(O)C(OC4CCC(O)C(C)O4)C(C)O3)C(C)O2)c2c(O)c3c(c(O)c2C1OC1CC(N(C)C)C(OC2CC(O)C(OC4CCC(O)C(C)O4)C(C)O2)C(C)O1)C(=O)c1c(O)ccc(O)c1C3=O (stereo not shown) [Obelmycin D] |  | 0.175 (≈ 0.145 µM) | 1.2 (≈ 0.996 µM) | 0.004 (≈ 0.00332 µM) | 140 |  |  |  |  |
| CCC1(O)CCc2c(O)c3c(c(O)c2C1OC1CC(N(C)C)C(OC2CC(O)C(OC4CCC(O)C(C)O4)C(C)O2)C(C)O1)C(=O)c1c(O)ccc(O)c1C3=O (stereo not shown) [Obelmycin F] |  | 0.6 (≈ 0.762 µM) | 1.43 (≈ 1.82 µM) |  |  |  | 0.092 (≈ 0.117 µM) |  | 130 |

From patent publication US4734493A, “Novel anthracycline antibiotics” (Sanraku, Incorporated, priority 1985, dated 1988)
